# Results from patent publication US11312781B2, “Antigen binding molecules that bind LIGHT” (Capella Bioscience Ltd., priority 2018, dated 2022).
# Legend:
# [1] = system: CMV stimulated human PBMC; test: Human PBMC antigen specific (CMV) recall response in vitro, cytokines by Luminex; format: cell-based; conditions: CMV stimulation, 5 day incubation; for IFN gamma production from PBMC: FIG. 11B
# Method: In order to test the efficacy of anti-LIGHT mAbs on stimulated PBMC a recall antigen CMV (cytomegalovirus) lysate was utilised to stimulate PBMC from human CMV-positive donors (ImmunXperts, Belgium). 200 000 cells per well in RPMI (Thermofisher cat. no. 11875) plus 10% FBS (GIBCO) was added to CMV lysate (Serion immunologics cat. no. BA109VS, final concentration 10 ug/ml) with test mAbs in a volume of 200 ul. After a 5 day incubation at 37C and 5% CO2 the media was recovered by centrifugation and assayed for cytokines by Luminex immunoassay (ThermoFisher).
# [2] = system: DSS-induced colitis in hu-NOG mice; test: DSS-induced acute colitis in humanized (hu-NOG) mice; format: in vivo, mouse (hu-NOG); conditions: i.p. days 0, 3, 6, 9, versus IgG control, FIG. 9
# Method: The experiments were carried out with the NOD/Shi-scid/IL-2Rγnull immunodeficient mouse strain (NOG) engrafted with CD34+ hematopoietic stem cells isolated from human cord blood as described in Manfroi B et al. (Cancer Res. 2017; 77:1097-1107). The reconstitution of the human immune system in the mice occurred for at least 14 weeks, and hu-mice were used that had at least 25% human CD45+/total CD45 cells. Female hu-NOG mice were randomised into 3 groups (n=10) taking into account the humanization rate and the CD34+ cell donors. All animal studies described in this study have been reviewed and approved by the local ethic committee (CELEAG). Mice were allowed to acclimate to the experimental environment for 5 days prior to the beginning of the experiment. The DSS was administrated for 7 days, from day 2 to 8. The DSS (3%) was added to the drinking water (ad libitum) and freshly renewed every two days.
# All treatments started before the DSS-induced colitis. 3B04 variant 16 (5 mg/kg) and the isotype control and anti-TNF (Humira) antibodies (10 mg/kg) were administrated i.p. on days 0, 3, 6, 9. The experiment was terminated on day 12. The following parameters were recorded daily for 12 days: body weight in grams (g); diarrhea and stool consistency; bleeding and mortality. The global clinical score was calculated as follows: […]
Molecule,IL-17 production from PBMC ([1]; FIG. 11A),IFN gamma production from PBMC [1],Global clinical score [2]
"C[C@@H]1CCN(C(=O)CC#N)C[C@@H]1N(C)c1ncnc2[nH]ccc12 [Tofacitinib, reference compound]",inhibited,inhibited,–
"Opdivo: anti-PD-1 antibody, positive control in the PBMC assay (10 ug/ml) [reference compound]",–,increased,–
"adalimumab [humira, reference compound]",–,–,significant drop in the global clinical score from days 9 to 11
